Experimental data from BigSolDB 2.1.

O=C(/C=C/c1ccc(O)c(O)c1)O[C@H](Cc1ccc(O)c(O)c1)C(=O)O
solubility (mole fraction)
Details	293.15 K	298.15 K	303.15 K	308.15 K	313.15 K	318.15 K
in ethanol	0.268	0.295	0.328	0.366	0.408	0.455
in methanol	0.28	0.314	0.358	0.399	0.443	0.494
in water	0.0135	0.0151	0.0165	0.0185	0.0209	0.0248
